Measurements: EP2678315B1, “(Pyridin-4-yl)benzylamides as allosteric modulators of alpha 7 nAChR” (Janssen Pharmaceutica, N.V., priority 2011, dated 2012)
Read-outs that look alike come from different tables or passages of the source.

Columns and labels:
human alpha 7-wt nAChR [1] = molecular target: T1, human alpha 7-wt nAChR (Homo sapiens, UniProt P36544); test: Ca2+ flux imaging (FDSS) (protocol B); type: cell-based; details: for EC50: read-out: pEC50 (converted); for Emax: read-out: % Efficacy
T1 construct: expressed in transfected cells
T1 sequence (P36544 23-502): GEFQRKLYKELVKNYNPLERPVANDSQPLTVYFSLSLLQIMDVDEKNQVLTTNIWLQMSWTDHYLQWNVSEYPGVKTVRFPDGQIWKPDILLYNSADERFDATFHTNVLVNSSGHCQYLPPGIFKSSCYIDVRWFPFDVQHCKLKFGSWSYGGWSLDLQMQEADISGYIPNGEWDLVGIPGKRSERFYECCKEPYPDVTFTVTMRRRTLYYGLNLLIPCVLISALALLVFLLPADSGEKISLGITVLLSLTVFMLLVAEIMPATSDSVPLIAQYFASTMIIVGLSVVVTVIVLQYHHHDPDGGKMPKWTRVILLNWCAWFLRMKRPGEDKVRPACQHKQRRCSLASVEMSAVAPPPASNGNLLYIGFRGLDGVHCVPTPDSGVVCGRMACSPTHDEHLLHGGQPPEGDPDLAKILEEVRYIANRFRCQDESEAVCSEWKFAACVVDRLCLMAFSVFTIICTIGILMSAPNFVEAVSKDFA
Description: Example D.1 : Ca^2+ flux imaging (FDSS) (protocol B)
• a) Assay buffer Hanks buffered saline solution (HBSS, Invitrogen, Belgium), supplemented with 10 mM HEPES (Invitrogen, Belgium), CaCl2 to a final concentration of 5 mM, 0.1 % Bovine serum albumin (Sigma-Aldrich NV, Belgium). • b) Calcium-sensitive dye - Fluo-4AM Fluo-4AM (Molecular Probes, USA) was dissolved in DMSO containing 10% Pluronic acid (Molecular Probes, USA) to give a stock solution which was diluted in assay buffer supplemented with 5 mM probenicid (Sigma, Aldrich NV, Belgium) to give a final concentration of 2 µM • c) 384-well plates Black-sided, transparent bottomed 384 well plates coated with poly-D-lysine, PDL pre-coated (Coming, Incorporated, USA) • d) Calcium flux measurement A Functional drug screening system (FDSS, Hamamatsu) was used to measure intracellular free-calcium flux signals.
Monolayers of human alpha 7-wt nAChR-expressing cells were grown in black-sided, transparent bottomed 384 well plates coated with PDL for 24 hours prior to loading with a fluorescent calcium indicator, fluo-4AM for up to 120 minutes.
PAM activity was detected in real time by applying the compounds to be tested to the loaded cells along with an alpha 7 nicotinic receptor agonist during constant monitoring of cellular fluorescence in a FDSS. Compounds giving peak fluorescent responses greater than the response due to agonist alone, were consideted to be alpha 7 nAChR PAMs. The alpha 7 nicotinic receptor agonist was choline, applied at a sub-maximal concentration of 100 µM. In a further setting of the present invention the compounds were applied prior to the alpha 7 nicotinic receptor agonist, in a particular 10 minutes prior to the agonist.
A control response to choline was calculated on each plate from the difference in peak in fluorescence in wells receiving either choline or assay buffer alone. Compounds of the present invention were tested at a concentration range from 0.01 µM to 30 µM. Compounds were considered to have an interesting activity when they potentiated the choline signal at least with 200 % when tested at a concentration of 30 µM (the efficacy of 100 µM choline was defined as 100% in the absence of a PAM). An EC50 (or pEC50) was determined as a concentration relating to half the maximal effect, when a clear sigmoidal curve with top plateau was obtained.

human alpha 7-wt nAChR [2] = molecular target: T1, human alpha 7-wt nAChR; test: Patch-clamp current recording (whole-cell voltage-clamp, GH4C1 cells); type: cell-based; set-up: key: Type 0 compounds minimally change the effect size of the current elicited by 1 mM choline.; Type 1 compounds enhance the effect size of the current elicited by 1 mM choline but minimally alter the kinetics of the receptor.; Type 2 compounds enhance the effect size of the current elicited by 1 mM choline while reducing the rate and/or the extent of desensitization.; Type 3 compounds enhance the effect size of the current elicited by 1 mM choline. When tested at higher concentrations up to 10 µM they completely inhibit desensitization; Type 4 compounds allow for an initial desensitization of the receptor followed by a re-opening of the receptor during agonist application; details: current elicited by 1 mM choline
Description: The compounds of the present invention are classified as type 1-4, based on qualitative kinetic properties, as determined by whole-cell voltage-clamp recordings. This classification is based on the effect of an alpha 7 PAM compound, as described hereinbefore, on the signal elicited by an agonist application. In particular, said agonist is choline at a concentration of 1mM. In a preferred experimental setting, said alpha 7 PAM compound and choline are simultaneously applied to the cell, as described hereinafter. Desensitization is defined as the closure of the receptor upon activation during the application of the agonist in whole-cell voltage-clamp electrophysiology measurements seen as the reduction of the […] current after initial activation by the agonist.
The definition of the PAM types 1-4 is described hereinafter: Type 0 compounds minimally change the effect size of the current elicited by 1 mM choline. Type 1 compounds enhance the effect size of the current elicited by 1 mM choline but minimally alter the kinetics of the receptor. In particular, the rate and the extent of desensitization and of deactivation of the receptor elicited by the agonist is not affected. The compound-modulated response to 1 mM choline, therefore, is close to a linear scaling of the 1 mM choline response in absence of the alpha 7 PAM compound: Type 2 compounds enhance the effect size of the current elicited by 1 mM choline while reducing the rate and/or the extent of desensitization. Deactivation of the receptor is generally unaffected. Type 3 compounds enhance the effect size of the current elicited by 1 mM choline. […] Deactivation of the receptor may be slowed down. Type 4 compounds allow for an initial desensitization of the receptor followed by a re-opening of the receptor during agonist application. At low-potency concentrations of the alpha 7 PAM compound, the agonist-induced activation, which is followed by desensitization, can still be separated from the compound-induced re-opening as an initial inward current-maximum. At higher potency concentrations of the alpha 7 PAM compound, the re-opening occurs faster than the closure due to desensitization so that the initial current-maximum disappears.
A compound was considered to have interesting PAM-like activity when the potentiation of the peak current was at least 200% compared to the control choline response (= 100%). Such compounds are classified as belonging to a particular PAM type in the Experimental Part. Compounds not meeting the condition are not classified as belonging to a particular PAM-type.
The compounds also have a potentiating effect on the response to choline when measured by whole-cell patch clamp electrophysiology in GH4C1 cells stably over-expressing the human wild-type alpha 7 receptor.
Example D.2 : Patch-clamp current recording
Patch-clamp recording from mammalian cells has provided a powerful means of assessing the function of membrane-bound proteins thought to be subunits of ligand-gated ion channels. Activation of such proteins by endogenous or exogenous ligands cause opening of a pore associated with the receptor through which ions flow down their electrochemical gradient. In the case of the human alpha 7-wt nAChR-expressing GH4C1 recombinant cell line the preferential permeability to calcium of this receptor means that calcium flows into the cell upon activation by ACh, choline and other nicotinic ligands giving rise to a calcium current. Since this receptor rapidly desensitizes in the presence of agonist it is important that an application system is used which is capable of very rapid switching of solutions (< 100 ms) to prevent partial or full desensitisation of receptor responses coincident with the time of agonist application. Consequently, a second convenient technique to assess the enhancement of nicotinic efficacy is a patch-clamp recording from human alpha 7-wt nAChR-expressing GH4C1 cells coupled with a rapid-application system. […]

Structure (SMILES)	EC50 (human alpha 7-wt nAChR [1]; Ca2+ assay as described in D.1)	Emax (human alpha 7-wt nAChR [1])	PAM type (human alpha 7-wt nAChR [2])	Emax (human alpha 7-wt nAChR [1]; Ca2+ assay as described in D.1)
Cc1cc(-c2c(F)cc(N3CCOC(C)C3)cc2CNC(=O)CC2CC2)cc(C)n1 (stereo not shown) [Compound 114]	158 nM	415%	3	
Cc1cc(-c2ccc(N3C[C@@H](C)O[C@@H](C)C3)c(CNC(=O)c3conc3C)c2)cc(C)n1 [Compound 136]	129 nM		3	
Cc1cc(-c2c(F)cc(N3CCOC(C)C3)cc2CNC(=O)C(C)C)cc(C)n1 (stereo not shown) [Compound 113]	89.1 nM	284%	2	
Cc1cc(-c2c(F)cc(N3C[C@@H](C)O[C@@H](C)C3)c(F)c2CNC(=O)c2cc(C)on2)cc(C)n1 [Compound 123]	631 nM		0	
Cc1cc(-c2c(Cl)cc(N3C[C@@H](C)O[C@@H](C)C3)cc2CNC(=O)c2cc(C)on2)cc(C)n1 [Compound 120]	661 nM		1	
Cc1cc(-c2c(F)cc(N3C[C@@H](C)O[C@@H](C)C3)c(F)c2CNC(=O)CC2CC2)cc(C)n1 [Compound 124]	347 nM		2	
Cc1cc(-c2c(F)cc(N3C[C@@H](C)O[C@@H](C)C3)cc2CNC(=O)C2CC2)ccn1 [Compound 88]	209 nM	868%	2	
Cc1cc(-c2c(F)cc(N3CCO[C@@H](C(F)(F)F)C3)cc2CNC(=O)c2cc(C)on2)cc(C)n1 [Compound 100]	155 nM		2	
Cc1cc(-c2c(F)cc(N3CCOC(C)C3)cc2CNC(=O)CC(C)C)cc(C)n1 (stereo not shown) [Compound 116]	20.9 nM	374%	3	
Cc1cc(-c2cc(F)c(N3C[C@@H](C)O[C@@H](C)C3)cc2CNC(=O)c2cc(C)on2)cc(C)n1 [Compound 127]	550 nM	554%	1	
Cc1cc(-c2c(Cl)cc(N3C[C@@H](C)O[C@@H](C)C3)cc2CNC(=O)CC2CC2)cc(C)n1 [Compound 119]	28.8 nM	624%	2	
Cc1cc(-c2ccc(N3C[C@@H](C)O[C@@H](C)C3)c(CNC(=O)C(C)C)c2)cc(C)n1 [Compound 134]	91.2 nM		3	
CC(C)C(=O)NCc1cc(N2C[C@@H](C)O[C@@H](C)C2)ccc1-c1ccncc1 [Compound 15]	1100 nM			
Cc1cc(-c2ccc(N3CCCC(C(F)(F)F)C3)cc2CNC(=O)c2conc2C)cc(C)n1 (stereo not shown) [Compound 32]				72.4%
Cc1nocc1C(=O)NCc1cc(N2CCOCC2)ccc1-c1ccncc1 [Compound 138]				386%
Cc1cc(-c2ccc(N3C[C@H](C)C[C@H](C)C3)cc2CNC(=O)c2cc(C)on2)cc(C)n1 [Compound 18]	288 nM	136%		

Structure (SMILES)	EC50 (human alpha 7-wt nAChR [1]; Ca2+ assay as described in D.1)	Emax (human alpha 7-wt nAChR [1])	PAM type (human alpha 7-wt nAChR [2])	Emax (human alpha 7-wt nAChR [1]; Ca2+ assay as described in D.1)
Cc1cc(-c2ccc(N3C[C@@H](C)O[C@@H](C)C3)c(F)c2CNC(=O)C2CCCCC2)cc(C)n1 [Compound 46]	91.2 nM			
Cc1cc(-c2ccc(N3C[C@@H](C)O[C@@H](C)C3)cc2CNC(=O)C(C)C)ccn1 [Compound 9]	240 nM			
Cc1cc(-c2ccc(N3CCO[C@H](C(F)(F)F)C3)c(F)c2CNC(=O)CC2CC2)cc(C)n1 [Compound 64]	309 nM			
Cc1cc(-c2ccc(N3CCOCC3)cc2CNC(=O)c2conc2C)cc(C)n1 [Compound 26]	457 nM	202%		
Cc1cc(-c2c(F)cc(N3C[C@@H](C)O[C@@H](C)C3)cc2CNC(=O)C2CC2)cc(C)n1 [Compound 79]	17.4 nM	381%		
Cc1cc(-c2ccc(N3CCO[C@@H](C(F)(F)F)C3)c(F)c2CNC(=O)CC2CC2)cc(C)n1 [Compound 59]	83.2 nM			
Cc1cc(-c2ccc(N3CCCC(C(F)(F)F)C3)cc2CNC(=O)CC2CC2)cc(C)n1 (stereo not shown) [Compound 35]	26.3 nM	389%		
Cc1cc(-c2c(F)cc(N3C[C@@H](C)O[C@@H](C)C3)cc2CNC(=O)c2cc(C)on2)cc(C)n1 [Compound 75]	209 nM			
Cc1cc(-c2ccc(C3C[C@@H](C)O[C@@H](C)C3)c(F)c2CNC(=O)CC(C)C)cc(C)n1 (relative stereo) [Compound 55]	229 nM	890%		
Cc1cc(-c2ccc(N3C[C@@H](C)O[C@@H](C)C3)c(F)c2CNC(=O)C(C)C2CC2)cc(C)n1 (mixture of isomers) [Compound 50]	479 nM			
Cc1cc(-c2c(F)cc(N3CCCC(C(F)(F)F)C3)cc2CNC(=O)CC2CC2)cc(C)n1 (stereo not shown) [Compound 95]	27.5 nM	427%		
Cc1cc(-c2ccc(N3C[C@@H](C)O[C@@H](C)C3)c(F)c2CNC(=O)CC2CCC2)cc(C)n1 [Compound 45]	138 nM			
Cc1cc(-c2c(F)cc(N3C[C@@H](C)O[C@@H](C)C3)cc2CNC(=O)CC2CC2)ccn1 [Compound 87]	79.4 nM			
Cc1cc(-c2ccc(N3CCCC(C(F)(F)F)C3)cc2CNC(=O)c2cc(C)on2)cc(C)n1 (stereo not shown) [Compound 34]	537 nM	405%		
Cc1cc(-c2ccc(N3CCO[C@H](C(F)(F)F)C3)c(F)c2CNC(=O)C(C)C)cc(C)n1 [Compound 65]	575 nM			
Cc1cc(-c2ccc(N3C[C@@H](C)O[C@@H](C)C3)cc2CNC(=O)CC2CC2)ccn1 [Compound 13]	282 nM	915%		
